{"source": "patent US20090285916A1", "about": "“METHODS OF DIAGNOSIS AND TREATMENT OF EQUINE LAMINITIS AND CUSHING'S SYNDROME” (Pegasus Equine Diagnostics Limited, priority 2006, published 2009)", "key": {"[1]": {"test_system": "equine digital arteries", "details": "reference 38; cited from earlier work"}, "[2]": {"test_system": "PPID (pituitary pars intermedia dysfunction)", "test": "Anecdotal evidence on melatonin and pergolide dosing in PPID horses and ponies", "type": "in vivo", "excerpt": "From a chronological perspective obviously both groups of horses were aged (>16 years), but from the viewpoint of the Neuroendocrine Theory of Aging (21) the PPID group might be considered to be of greater “biological age” than the control group. […] There was also a pronounced dopamine rhythm phase shift and amplitude decrease for the PPID group in June and September, in addition to evidence of serotonin acrophase amplitudes being increased in September. These observations are consistent with the reduction in dopamine and concomitant increase in serotonin implied in the treatment of PPID horses with dopamine agonists and serotonin antagonists. […] This may also apply to the subsequent increases in follicle density and length plus coarsening of the hair structure that have been observed. It is worth noting that the significant differences between the groups in our results appear to pre-date the traditionally acknowledged seasons (spring, autumn) of increased laminitis susceptibility by approximately three months (as well as being present during such seasons); this is perhaps not when most practitioners would expect them. […] The situation may, of course, be exacerbated by other trigger factors for laminitis becoming part of the external conditions to which the horse is exposed, e.g. access to a flush of spring grass. Additionally, it might be expected that dopamine and serotonin would be the dominant factors implicated in investigating PPID, as defined by past treatment regimes. However, when the results of the present study were examined as a whole, taking into account assay sensitivity, the neurohormone rhythms that were discovered and neurohormone rhythms that exist in the literature for healthy horses (14, 40, 41), the signals felt to be most reliable were dopamine plasma concentrations and serotonin:melatonin and dopamine:melatonin plasma concentration ratios, with serotonin:dopamine only represented for two times in June (as shown in FIG. 6). […]"}}, "data": [{"smiles": "NCCc1c[nH]c2ccc(O)cc12", "note": "[5-HT, 5-hydroxytryptamine]", "values": [{"measurement": "sensitivity of digital arteries to vasoconstrictive actions compared with other peripheral blood vessels", "setting": "[1]", "value": "30-40 fold"}]}, {"smiles": "CCCN1C[C@H](CSC)C[C@@H]2c3cccc4[nH]cc(c34)C[C@H]21", "note": "[pergolide]", "values": [{"measurement": "effect of changing time of day of administration, changing the dosage (by as little as 0.05 mg per day) and under or over dosing", "setting": "[2]", "value": "increase the probability that laminitis will occur"}, {"measurement": "maximum dosage for ponies", "setting": "[2]; ponies", "value": 0.75, "unit": "mg"}]}, {"smiles": "COc1ccc2[nH]cc(CCNC(C)=O)c2c1", "note": "[melatonin]", "values": [{"measurement": "shedding of the winter coat", "setting": "[2]; low dosage 1.5 mg, in the evening each day, all year round", "value": "facilitates shedding of the winter coat at the expected time"}]}]}
